US12077503B2, “Substituted cyclic amides and their use as herbicides” (FMC CORPORATION, priority 2015, dated 2024)

Tests used:
Assay in all cases: Test G Pre-Emergence Protocol
Type in all cases: in vivo
[1] = system: redroot pigweed (Amaranthus retroflexus); conditions: Amaranthus retroflexus, pre-emergence, 312 h, evaluated after 13 days; for pest or weed control at 15.625 g/ha: 15.625 g ai/ha; for pest or weed control at 15.625 g/ha / pest or weed control at 250 g/ha: read-out: Pigweed, Redroot damage rating (100=total damage to plant; 0=no damage to plant); for pest or weed control at 62.5 g/ha: 62.5 g ai/ha, 100=total damage to plant, 0=no damage to plant, read-out: plant damage rating, Pigweed, Redroot; for pest or weed control at 250 g/ha: 250 g ai/ha
Procedure: (§1) Seeds of corn (Zea mays), giant foxtail (Setaria faberi), barnyardgrass (Echinochloa crus-galli), ivy-leaved morning glory (Ipomoea hederacea), redroot pigweed (Amaranthus retroflexus) and velvetleaf (Abutilon theophrasti) were sown in standard soil in pots. After cultivation for one day under controlled conditions in a glasshouse (at 24/16° C., day/night; 14 hours light; 65% humidity), the plants were sprayed with an aqueous spray solution derived from the formulation of the technical active ingredient in acetone/water (50:50) solution containing 0.5% Tween 20 (polyoxyethylene sorbitan monolaurate, CAS RN 9005-64-5) to give a final dose of 15.625, 62.5 or 250 g/ha of test compound.
(§2) The test plants were then grown on under controlled conditions in a glasshouse (at 24/16° C., day/night; 14 hours light; 65% humidity) and watered twice daily. After 13 days the test was evaluated (100=total damage to plant; 0=no damage to plant). A dash (-) means no test result.

[2] = system: corn (Zea mays); conditions: Zea mays, pre-emergence, 312 h, evaluated after 13 days; for plant injury at 15.625 g/ha: 15.625 g ai/ha; for plant injury at 15.625 g/ha / plant injury at 250 g/ha: read-out: Corn damage rating (100=total damage to plant; 0=no damage to plant); for plant injury at 62.5 g/ha: 62.5 g ai/ha, 100=total damage to plant, 0=no damage to plant, read-out: plant damage rating, Corn; for plant injury at 250 g/ha: 250 g ai/ha
Procedure: as §1, §2

[3] = system: barnyardgrass (Echinochloa crus-galli); conditions: Echinochloa crus-galli, pre-emergence, 312 h, evaluated after 13 days; for pest or weed control at 15.625 g/ha: 15.625 g ai/ha, read-out: Barnyard grass damage rating (100=total damage to plant; 0=no damage to plant); for pest or weed control at 62.5 g/ha: 62.5 g ai/ha, 100=total damage to plant, 0=no damage to plant, read-out: plant damage rating, Barnyardgrass; for pest or weed control at 250 g/ha: 250 g ai/ha, read-out: Barnyardgrass damage rating (100=total damage to plant; 0=no damage to plant)
Procedure: as §1, §2

[4] = system: velvetleaf (Abutilon theophrasti); conditions: Abutilon theophrasti, pre-emergence, 312 h, evaluated after 13 days; for pest or weed control at 15.625 g/ha: 15.625 g ai/ha; for pest or weed control at 15.625 g/ha / pest or weed control at 250 g/ha: read-out: Velvetleaf damage rating (100=total damage to plant; 0=no damage to plant); for pest or weed control at 62.5 g/ha: 62.5 g ai/ha, 100=total damage to plant, 0=no damage to plant, read-out: plant damage rating, Velvetleaf; for pest or weed control at 250 g/ha: 250 g ai/ha
Procedure: as §1, §2

[5] = system: ivy-leaved morning glory (Ipomoea hederacea); conditions: Ipomoea, pre-emergence, 312 h, evaluated after 13 days; for pest or weed control at 15.625 g/ha: 15.625 g ai/ha, read-out: Morning-glory, Ivy-leaved damage rating (100=total damage to plant; 0=no damage to plant); for pest or weed control at 62.5 g/ha: 62.5 g ai/ha, 100=total damage to plant, 0=no damage to plant, read-out: plant damage rating, Morningglory, Ivy-leaved; for pest or weed control at 250 g/ha: 250 g ai/ha, read-out: Morningglory, Ivy-leaved damage rating (100=total damage to plant; 0=no damage to plant)
Procedure: as §1, §2

[6] = system: giant foxtail (Setaria faberi); conditions: Setaria faberi, pre-emergence, 312 h, evaluated after 13 days; for pest or weed control at 15.625 g/ha: 15.625 g ai/ha; for pest or weed control at 15.625 g/ha / pest or weed control at 250 g/ha: read-out: Foxtail, Giant damage rating (100=total damage to plant; 0=no damage to plant); for pest or weed control at 62.5 g/ha: 62.5 g ai/ha, 100=total damage to plant, 0=no damage to plant, read-out: plant damage rating, Foxtail, Giant; for pest or weed control at 250 g/ha: 250 g ai/ha
Procedure: as §1, §2

Row | Structure (SMILES) | pest or weed control at 15.625 g/ha [1] [%] | pest or weed control at 62.5 g/ha [1] [%] | pest or weed control at 250 g/ha [1] [%] | plant injury at 15.625 g/ha [2] [%] | plant injury at 62.5 g/ha [2] [%] | plant injury at 250 g/ha [2] [%] | pest or weed control at 15.625 g/ha [3] [%] | pest or weed control at 62.5 g/ha [3] [%] | pest or weed control at 250 g/ha [3] [%] | pest or weed control at 15.625 g/ha [4] [%] | pest or weed control at 62.5 g/ha [4] [%] | pest or weed control at 250 g/ha [4] [%] | pest or weed control at 15.625 g/ha [5] [%] | pest or weed control at 62.5 g/ha [5] [%] | pest or weed control at 250 g/ha [5] [%] | pest or weed control at 15.625 g/ha [6] [%] | pest or weed control at 62.5 g/ha [6] [%] | pest or weed control at 250 g/ha [6] [%]
1 | CN1C[C@@H](c2ccc(C(F)(F)F)cc2)[C@H](C(=O)Nc2ccccc2)C1=O (racemic) [Compound 1404] | 0 | 0 | 20 | 0 | 0 | 0 | 0 | 20 | 70 | 0 | 0 | 0 | 0 | 10 | 20 | 0 | 70 | 80
2 | CN1C[C@H](c2ccc3c(c2)CCO3)[C@@H](C(=O)Nc2cccc(F)c2F)C1=O (racemic) [Compound 1499] | – | 0 | 0 | 0 | 0 | 80 | 0 | 80 | 90 | 0 | 0 | 30 | 0 | 0 | 100 | 0 | 80 | 80
3 | CN1C[C@H](c2ccc3occc3c2)[C@@H](C(=O)Nc2cccc(F)c2F)C1=O (racemic) [Compound 1500] | 0 | 0 | 80 | 0 | 0 | 30 | 30 | 90 | 90 | 0 | 0 | 20 | 0 | – | 20 | 60 | 80 | 80
4 | Cc1c(NC(=O)[C@@H]2C(=O)N(C)C[C@H]2c2ccc(C(F)(F)F)cc2)ccc(F)c1F (racemic) [Compound 1502] | 0 | 20 | 70 | 0 | 0 | 50 | 20 | 60 | 80 | 0 | 0 | 10 | 0 | 0 | 0 | 60 | 90 | 90
5 | Cc1ccncc1NC(=O)[C@@H]1C(=O)N(C)C[C@H]1c1ccc(C(F)(F)F)cc1 (racemic) [Compound 1505] | 0 | 0 | 0 | 0 | 0 | 0 | 0 | 0 | 20 | 0 | 0 | 0 | 0 | – | 0 | 0 | 10 | 30
6 | CN1C[C@@H](c2ccc(C(F)(F)F)cc2)[C@H](C(=O)Nc2cc(C(F)(F)F)nn2C)C1=O (racemic) [Compound 1510] | – | 0 | 0 | 0 | 0 | 0 | 0 | 0 | 0 | 0 | 0 | 0 | 0 | 0 | 0 | 0 | 0 | 0
7 | CN1C[C@@H](c2ccc(C(F)(F)F)cc2)[C@H](C(=O)Nc2ccno2)C1=O (racemic) [Compound 1513] | 0 | 0 | 0 | 0 | 0 | 0 | 0 | 0 | 0 | 0 | 0 | 0 | 0 | 0 | 0 | 0 | 0 | 0
8 | CN1C[C@@H](c2ccc(C(F)(F)F)cc2)[C@H](C(=O)Nc2ncc(Br)cn2)C1=O (racemic) [Compound 1514] | 0 | 0 | 0 | 0 | 0 | 0 | 0 | 0 | 0 | 0 | 0 | 0 | 0 | 0 | 0 | 0 | 0 | 0
9 | Cc1cscc1NC(=O)[C@@H]1C(=O)N(C)C[C@H]1c1ccc(C(F)(F)F)cc1 (racemic) [Compound 1526] | 0 | 50 | 70 | 0 | 0 | 10 | 20 | 60 | 80 | 0 | 0 | 0 | 10 | – | 0 | 30 | 50 | 90
